In this assay the target is T1, human full-length CCK-2 receptor (Homo sapiens, UniProt P32239).
T1 construct: stably transfected to over-express the human full-length CCK-2 receptor (A431-CCK-2R); expressed in transfected cells
T1 sequence (P32239 1-447): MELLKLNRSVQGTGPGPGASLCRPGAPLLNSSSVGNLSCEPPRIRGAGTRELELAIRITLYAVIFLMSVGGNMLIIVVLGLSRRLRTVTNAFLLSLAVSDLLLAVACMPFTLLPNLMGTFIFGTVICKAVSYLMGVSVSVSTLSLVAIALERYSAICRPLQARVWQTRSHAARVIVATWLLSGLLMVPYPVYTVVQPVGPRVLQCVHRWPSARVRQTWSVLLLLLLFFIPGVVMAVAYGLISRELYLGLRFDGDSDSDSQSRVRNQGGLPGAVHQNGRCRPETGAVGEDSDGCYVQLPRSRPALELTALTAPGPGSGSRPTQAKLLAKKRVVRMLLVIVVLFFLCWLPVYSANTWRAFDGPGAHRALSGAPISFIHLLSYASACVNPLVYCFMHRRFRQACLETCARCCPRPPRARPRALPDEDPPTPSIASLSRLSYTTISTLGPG
The assay is described as follows: Competitive ligand binding against [^177Lu]Lu-DOTA-CP04 in A431-CCK-2R cells. Particulars: for loss of binding affinity / activity: D-Ala analogue versus baseline comparative example-1; for IC50: read-out: IC50. On the procedure:
CCK-2 receptor binding experiments were conducted using A431 (human epidermoid carcinoma) cells stably transfected to over-express the human full-length CCK-2 receptor (A431-CCK-2R). As a negative control, A431 cells stably transfected with an empty vector were analysed simultaneously (A431-EV). A431 cells were maintained in DMEM (Gibco, Australia) media supplemented with 10% foetal calf serum and 250 μg/mL G418 as described previously (Aloj L, et al., J Nucl Med., 2004, Mar; 45(3), 485-94). The affinity of peptides for the CCK-2R was evaluated using competitive binding assays against [^177Lu]Lu-DOTA-CP04 in A431-CCK-2R cells. Briefly, 48 h before the experiment cells were plated at a density of 650,000 cells per well in 6 well plates. On the day of the experiment the peptides were diluted in DMEM supplemented with 1% foetal calf serum to at least 7 different concentrations (0-400 nM) and approximately 50,000 cpm of [^177Lu]Lu-DOTA-CP04 was added to each dilution. Cells were washed twice in ice-cold binding buffer (DMEM supplemented with 1% foetal calf serum) and resuspended in 1.5 mL of the pre-prepared compound mix before being incubated at 37° C. for 1 h. Post-incubation the media was removed and kept for analysis (unbound fraction) and the cells were washed twice in ice-cold binding buffer, which was pooled with the unbound fraction. Finally, 1 M NaOH was added to the cells and allowed to incubate for 5 min before lysates were collected (bound fraction). A small volume of lysate was kept aside to determine protein concentration using the Pierce® BCA protein assay kit (Thermo Fisher, Australia). All samples were analysed using the Perkin Elmer 2480 Wizard2™ gamma counter (PerkinElmer, Massachusetts, USA) and were normalised according to protein concentration. Half-maximal inhibitory concentrations (IC50) were determined using nonlinear regression calculated using GraphPad Prism Software (GraphPad Software, California, USA).
The compounds were evaluated for their ability to disrupt the binding between CCK-2 receptor (CCK-2R) and [^177Lu]Lu-DOTA-CP04 using the methodology described above and compared to comparative example-2 (FIG. 2; Table 5).

Where [1] appears, read: D-Ala substituted peptides (Table 2), against [^177Lu]Lu-DOTA-CP04 in A431-CCK-2R cells.
Setting [2] is: modified peptides based on Peptide C (Table 4).
Setting [3] is: substituted-phenylalanine peptides based on Cmp ex-1 (Table 3).

Where two headings read alike, the source gives them in different places. Square brackets hold non-standard residues; d marks the D form. Peptide text beside a SMILES is read from it. * marks the point of attachment. DOTA = O=C(O)CN1CCN(CC(=O)O)CCN(CC(=O)*)CCN(CC(=O)O)CC1; Phe(F5) = N[C@@H](Cc1c(F)c(F)c(F)c(F)c1F)C(=O)O; Phe(3,4-F2) = N[C@@H](Cc1ccc(F)c(F)c1)C(=O)O; NMe1Nal = CN[C@@H](Cc1cccc2ccccc12)C(=O)O; Phe(4-NH2) = Nc1ccc(C[C@H](N)C(=O)O)cc1; Phe(3-F) = N[C@@H](Cc1cccc(F)c1)C(=O)O; 1Nal = N[C@@H](Cc1cccc2ccccc12)C(=O)O; 2Nal = N[C@@H](Cc1ccc2ccccc2c1)C(=O)O; NMeNle = CCCC[C@H](NC)C(=O)O; Sar = CNCC(=O)O

For orientation: IC50 means the point on the concentration scale where inhibition reaches its midpoint. As for `CCCC[C@@H](C(=O)N[C@@H](CC(=O)O)C(=O)N[C@@H](Cc1cccc2ccccc12)C(N)=O)N(C)C(=O)[C@H](Cc1c[nH]c2ccccc12)NC(=O)CN(C)C(=O)[C@H](Cc1ccc(O)cc1)NC(=O)[C@H](C)NC(=O)[C@@H](CCC(=O)O)NC(=O)[C@@H](CCC(=O)O)NC(=O)[C@@H](CCC(=O)O)NC(=O)[C@@H](CCC(=O)O)NC(=O)[C@@H](C)NC(=O)[C@H](N)CCC(=O)O` [B] (H-[dE][dA][dE][dE][dE][dE]AY[Sar]W[NMeNle]D[1Nal]-NH2), the “loss of binding affinity / activity” value is “approx. 5 fold”. For the same compound, under setting [1], the IC50 worked out at 1.23 nM.
For the compound `CCCC[C@@H](C(=O)N[C@@H](CC(=O)O)C(=O)N[C@@H](Cc1cccc2ccccc12)C(N)=O)N(C)C(=O)[C@H](Cc1c[nH]c2ccccc12)NC(=O)CN(C)C(=O)[C@H](Cc1ccc(O)cc1)NC(=O)[C@H](C)NC(=O)[C@@H](CCC(=O)O)NC(=O)[C@@H](CCC(=O)O)NC(=O)[C@@H](C)NC(=O)[C@@H](CCC(=O)O)NC(=O)[C@@H](CCC(=O)O)NC(=O)[C@H](N)CCC(=O)O` [D] (H-[dE][dE][dE][dA][dE][dE]AY[Sar]W[NMeNle]D[1Nal]-NH2), the “loss of binding affinity / activity” value is “approx. 5 fold”. Moreover, the concentration for half-maximal inhibition (IC50) under setting [1] is 1.62 nM.
With `CCCC[C@@H](C(=O)N[C@@H](CC(=O)O)C(=O)N[C@@H](Cc1ccc(N)cc1)C(N)=O)N(C)C(=O)[C@H](Cc1c[nH]c2ccccc12)NC(=O)CN(C)C(=O)[C@H](Cc1ccc(O)cc1)NC(=O)[C@H](C)NC(=O)[C@@H](CCC(=O)O)NC(=O)[C@@H](CCC(=O)O)NC(=O)[C@@H](CCC(=O)O)NC(=O)[C@@H](C)NC(=O)[C@@H](CCC(=O)O)NC(=O)[C@H](N)CCC(=O)O` [M] (H-[dE][dE][dA][dE][dE][dE]AY[Sar]W[NMeNle]D[Phe(4-NH2)]-NH2; N-terminus assumed), under setting [2], the IC50 is 0.741 ± 0.064 nM.
With `CCCC[C@@H](C(=O)N[C@@H](CC(=O)O)C(=O)N(C)[C@@H](Cc1cccc2ccccc12)C(N)=O)N(C)C(=O)[C@H](Cc1c[nH]c2ccccc12)NC(=O)CN(C)C(=O)[C@H](Cc1ccc(O)cc1)NC(=O)[C@H](C)NC(=O)[C@@H](CCC(=O)O)NC(=O)[C@@H](CCC(=O)O)NC(=O)[C@@H](CCC(=O)O)NC(=O)[C@@H](CCC(=O)O)NC(=O)[C@@H](CCC(=O)O)NC(=O)[C@@H](CCC(=O)O)NC(=O)CN1CCN(CC(=O)O)CCN(CC(=O)O)CCN(CC(=O)O)CC1` [^natGa-Cmp ex-2, metal not drawn, reference compound] ({DOTA}-[dE][dE][dE][dE][dE][dE]AY[Sar]W[NMeNle]D[NMe1Nal]-NH2), for the setting “^natGa chelated DOTA-compounds based on Peptide C (Table 5)”, the IC50 is 0.158 nM.
Turning to `CCCC[C@@H](C(=O)N[C@@H](CC(=O)O)C(=O)N[C@@H](Cc1c(F)c(F)c(F)c(F)c1F)C(N)=O)N(C)C(=O)[C@H](Cc1c[nH]c2ccccc12)NC(=O)CN(C)C(=O)[C@H](Cc1ccc(O)cc1)NC(=O)[C@H](C)NC(=O)[C@@H](CCC(=O)O)NC(=O)[C@@H](CCC(=O)O)NC(=O)[C@@H](CCC(=O)O)NC(=O)[C@@H](CCC(=O)O)NC(=O)[C@@H](CCC(=O)O)NC(=O)[C@H](N)CCC(=O)O` [J] (H-[dE][dE][dE][dE][dE][dE]AY[Sar]W[NMeNle]D[Phe(F5)]-NH2; N-terminus assumed), the IC50 under setting [3] worked out at 1.92 nM.
In the case of `CCCC[C@@H](C(=O)N[C@@H](CC(=O)O)C(=O)N[C@@H](Cc1cccc2ccccc12)C(N)=O)N(C)C(=O)[C@H](Cc1c[nH]c2ccccc12)NC(=O)CN(C)C(=O)[C@H](Cc1ccc(O)cc1)NC(=O)[C@H](C)NC(=O)[C@@H](C)NC(=O)[C@@H](CCC(=O)O)NC(=O)[C@@H](CCC(=O)O)NC(=O)[C@@H](CCC(=O)O)NC(=O)[C@@H](CCC(=O)O)NC(=O)[C@H](N)CCC(=O)O` [F] (H-[dE][dE][dE][dE][dE][dA]AY[Sar]W[NMeNle]D[1Nal]-NH2), the “loss of binding affinity / activity” value is listed as “approx. 5 fold”. The IC50 under setting [1] is 1.62 nM.
Consider `CCCC[C@@H](C(=O)N[C@@H](CC(=O)O)C(=O)N[C@@H](Cc1cccc2ccccc12)C(N)=O)N(C)C(=O)[C@H](Cc1c[nH]c2ccccc12)NC(=O)CN(C)C(=O)[C@H](Cc1ccc(O)cc1)NC(=O)[C@H](C)NC(=O)[C@@H](CCC(=O)O)NC(=O)[C@@H](C)NC(=O)[C@@H](CCC(=O)O)NC(=O)[C@@H](CCC(=O)O)NC(=O)[C@@H](CCC(=O)O)NC(=O)[C@H](N)CCC(=O)O` [E] (H-[dE][dE][dE][dE][dA][dE]AY[Sar]W[NMeNle]D[1Nal]-NH2), for which the “loss of binding affinity / activity” value is given as “equivalent loss of activity”.
Regarding `CCCC[C@@H](C(=O)N[C@@H](CC(=O)O)C(=O)N[C@@H](Cc1cccc(F)c1)C(N)=O)N(C)C(=O)[C@H](Cc1c[nH]c2ccccc12)NC(=O)CN(C)C(=O)[C@H](Cc1ccc(O)cc1)NC(=O)[C@H](C)NC(=O)[C@@H](CCC(=O)O)NC(=O)[C@@H](CCC(=O)O)NC(=O)[C@@H](CCC(=O)O)NC(=O)[C@@H](C)NC(=O)[C@@H](CCC(=O)O)NC(=O)[C@H](N)CCC(=O)O` [U] (H-[dE][dE][dA][dE][dE][dE]AY[Sar]W[NMeNle]D[Phe(3-F)]-NH2; N-terminus assumed), the half-inhibitory concentration (IC50) under setting [2] was determined as 0.305 ± 0.013 nM.
For `CCCC[C@@H](C(=O)N[C@@H](CC(=O)O)C(=O)N[C@@H](Cc1ccc(F)c(F)c1)C(N)=O)N(C)C(=O)[C@H](Cc1c[nH]c2ccccc12)NC(=O)CN(C)C(=O)[C@H](Cc1ccc(O)cc1)NC(=O)[C@H](C)NC(=O)[C@@H](CCC(=O)O)NC(=O)[C@@H](CCC(=O)O)NC(=O)[C@@H](CCC(=O)O)NC(=O)[C@@H](CCC(=O)O)NC(=O)[C@@H](CCC(=O)O)NC(=O)[C@H](N)CCC(=O)O` [H] (H-[dE][dE][dE][dE][dE][dE]AY[Sar]W[NMeNle]D[Phe(3,4-F2)]-NH2), the IC50 under setting [3] was found to be 0.64 nM.
On to `CCCC[C@@H](C(=O)N[C@@H](CC(=O)O)C(=O)N[C@@H](Cc1cccc2ccccc12)C(N)=O)N(C)C(=O)[C@H](Cc1c[nH]c2ccccc12)NC(=O)CN(C)C(=O)[C@H](Cc1ccc(O)cc1)NC(=O)[C@H](C)NC(=O)[C@@H](CCC(=O)O)NC(=O)[C@@H](CCC(=O)O)NC(=O)[C@@H](CCC(=O)O)NC(=O)[C@@H](C)NC(=O)[C@@H](CCC(=O)O)NC(=O)[C@H](N)CCC(=O)O` [Peptide C] (H-[dE][dE][dA][dE][dE][dE]AY[Sar]W[NMeNle]D[1Nal]-NH2), for which, under setting [1], the IC50 was determined as 0.18 nM. Besides, the “improvement upon the activity of CP04” value (versus CP04) is given as “greater than 10 fold”. The “affinity exceeding that of the comparative peptide” value (versus comparative example-1) is listed as around 2 fold.
For `CCCC[C@@H](C(=O)N[C@@H](CC(=O)O)C(=O)N[C@@H](Cc1ccc2ccccc2c1)C(N)=O)N(C)C(=O)[C@H](Cc1c[nH]c2ccccc12)NC(=O)CN(C)C(=O)[C@H](Cc1ccc(O)cc1)NC(=O)[C@H](C)NC(=O)[C@@H](CCC(=O)O)NC(=O)[C@@H](CCC(=O)O)NC(=O)[C@@H](CCC(=O)O)NC(=O)[C@@H](CCC(=O)O)NC(=O)[C@@H](CCC(=O)O)NC(=O)[C@H](N)CCC(=O)O` [L] (H-[dE][dE][dE][dE][dE][dE]AY[Sar]W[NMeNle]D[2Nal]-NH2; N-terminus assumed), under setting [3], the IC50 stood at 0.6 nM.

For the origin of these results see patent US20260077071A1, “Targeted Delivery of Theranostic Agents” (Peter MacCallum Cancer Institute, priority 2022, published 2026).
